# According to ChEMBL document CHEMBL5370695, “Novel Adenosine Receptor Antagonists for Treating Cancer and Immune-Related Disorders” (ACS Med Chem Lett, 2023):
# Columns and labels:
# Adenosine receptor A2b = target: T1, Adenosine receptor A2b (Homo sapiens, UniProt P29275); assay: Binding affinity to recombinant human adenosine A2B receptor expressed in HEK293 cell membrane incubated for 15 to 30 mins by Topcount scintillation counter assay; type: cell membranes
# T1 sequence (P29275 whole entry): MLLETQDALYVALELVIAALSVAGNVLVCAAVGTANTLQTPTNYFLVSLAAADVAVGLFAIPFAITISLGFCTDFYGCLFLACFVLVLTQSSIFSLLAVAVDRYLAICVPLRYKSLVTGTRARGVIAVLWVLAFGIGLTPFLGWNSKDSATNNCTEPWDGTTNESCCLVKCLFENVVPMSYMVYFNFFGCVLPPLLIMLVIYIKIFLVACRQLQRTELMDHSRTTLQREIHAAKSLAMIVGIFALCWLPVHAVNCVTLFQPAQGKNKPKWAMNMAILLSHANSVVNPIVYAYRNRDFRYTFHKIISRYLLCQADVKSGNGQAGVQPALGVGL
# Adenosine receptor A2a = Adenosine receptor A2a (Homo sapiens, UniProt P29274); assay: Displacement of [3H]-SCH58261 from recombinant human adenosine A2A receptor expressed in HEK293 cell membrane incubated for 15 to 30 mins by Topcount scintillation counter assay; type: cell membranes
# Sequence of Adenosine receptor A2a (P29274 whole entry): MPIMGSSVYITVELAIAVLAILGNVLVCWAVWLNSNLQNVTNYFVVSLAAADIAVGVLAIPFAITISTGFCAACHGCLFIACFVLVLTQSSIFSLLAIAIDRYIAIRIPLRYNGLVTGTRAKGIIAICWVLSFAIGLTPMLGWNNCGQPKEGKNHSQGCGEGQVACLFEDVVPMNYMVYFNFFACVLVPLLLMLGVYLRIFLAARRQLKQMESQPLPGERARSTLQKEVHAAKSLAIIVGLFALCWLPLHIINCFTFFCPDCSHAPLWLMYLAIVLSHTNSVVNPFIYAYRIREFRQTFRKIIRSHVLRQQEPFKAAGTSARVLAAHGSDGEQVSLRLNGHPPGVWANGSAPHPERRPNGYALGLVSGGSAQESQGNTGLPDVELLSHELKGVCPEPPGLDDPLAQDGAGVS
IC50 (Adenosine receptor A2b) [nM],IC50 (Adenosine receptor A2a) [nM],Compound
3.1,1.1,COc1cccc2c1nc(N)n1nc(C3CC3c3ccc4c(c3)CCNC4)nc21 (stereo unspecified)
1.6,–,COc1cccc2c1nc(N)n1nc([C@H]3C[C@H](c4ncc(C(C)(C)N)cc4C)C3)nc21
3.3,–,COc1cccc2c1nc(N)n1nc([C@H]3C[C@H](c4ccc(C(C)(C)O)cn4)C3)nc21
2.7,0.8,COc1cccc2c1nc(N)n1nc([C@H]3C[C@H](c4ncc(C(C)(C)N)cc4Cl)C3)nc21
